Measurements published in US6914045B2, “Glycopeptide antibiotics” (Wyeth Holdings Corporation, priority 2001, dated 2005).
Values after ≈ are worked out from the molar mass of the structure shown.

What was measured:
Test in all cases: in vitro antibacterial evaluation, MIC by broth dilution
Format in all cases: cell-based
[1] = system: Staphylococcus sp.; settings: broth dilution, 18 hours at 35° C.; for MIC Staphylococcus aureus (GC 1131): strain GC 1131
Procedure, shortened: (§1)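 Following National Committee for Clinical Laboratory Standards recommendations (M7-A2), susceptibility was measured by dilution in Muller-Hinton II […]. Bacteria were seeded at 5×10^5 CFU/mL against compound concentrations from 64 down to 0.06 μg/mL.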

[2] = system: Enterococcus sp.; settings: broth dilution, 18 hours at 35° C.
Procedure, shortened: as §1

[3] = system: Streptococcus sp.; settings: broth dilution, 18 hours at 35° C.
Procedure, shortened: as §1

[4] = system: Escherichia coli; settings: 18 hours at 35° C.

MIC Staphylococcus aureus (GC 1131) ([1]; inoculum 5×10^5 CFU/mL): 0.25 µg/mL (≈ 0.18 µM)
MIC Staphylococcus aureus (ATCC 29213) ([1]; strain ATCC 29213): 0.25 µg/mL (≈ 0.18 µM)
MIC Staphylococcus aureus (GC 1131) [1]: 0.25 µg/mL (≈ 0.18 µM)
MIC Staphylococcus aureus (GC 3051) ([1]; strain GC 3051): 0.5 µg/mL (≈ 0.36 µM)
MIC Staphylococcus aureus (GC 3053) ([1]; strain GC 3053): 0.5 µg/mL (≈ 0.36 µM)
MIC Staphylococcus aureus (GC 4541) ([1]; strain GC 4541): 0.5 µg/mL (≈ 0.36 µM)
MIC Staphylococcus aureus (GC 4542) ([1]; strain GC 4542): 0.25 µg/mL (≈ 0.18 µM)
MIC Staphylococcus aureus-SMITH (GC 4543) ([1]; strain GC 4543): 0.5 µg/mL (≈ 0.36 µM)
MIC Staphylococcus aureus (GC 4544) ([1]; strain GC 4544): 0.25 µg/mL (≈ 0.18 µM)
MIC Staphylococcus aureus (GC 4545) ([1]; strain GC 4545): 0.25 µg/mL (≈ 0.18 µM)
MIC Coagulase Negative Staphylococcus (GC 4547) ([1]; strain GC 4547): 0.25 µg/mL (≈ 0.18 µM)
MIC Coagulase Negative Staphylococcus (GC 4548) ([1]; strain GC 4548): 0.25 µg/mL (≈ 0.18 µM)
MIC Coagulase Negative Staphylococcus (GC 4549) ([1]; strain GC 4549): 0.25 µg/mL (≈ 0.18 µM)
MIC Coagulase Negative Staphylococcus (GC 4551) ([1]; strain GC 4551): 0.25 µg/mL (≈ 0.18 µM)
MIC Enterococcus avium (GC 4558) [2]: 1 µg/mL (≈ 0.72 µM)
MIC Enterococcus faecalis (ATCC 29212) [2]: 1 µg/mL (≈ 0.72 µM)
MIC Enterococcus faecalis (GC 2242) [2]: 1 µg/mL (≈ 0.72 µM)
MIC Enterococcus faecalis (GC 2691) [2]: 1 µg/mL (≈ 0.72 µM)
MIC Enterococcus faecalis (GC 3059) [2]: 1 µg/mL (≈ 0.72 µM)
MIC Enterococcus faecalis (GC 4552) [2]: 1 µg/mL (≈ 0.72 µM)
MIC Enterococcus faecalis (GC 4553) [2]: 1 µg/mL (≈ 0.72 µM)
MIC Enterococcus faecalis (GC 4554) [2]: 1 µg/mL (≈ 0.72 µM)
MIC Enterococcus faecalis (GC 6189) [2]: 1 µg/mL (≈ 0.72 µM)
MIC Enterococcus faecium (GC 2243) [2]: 1 µg/mL (≈ 0.72 µM)
MIC Enterococcus faecium (GC 4556) [2]: 1 µg/mL (≈ 0.72 µM)
MIC Enterococcus faecium (GC 4557) [2]: 0.5 µg/mL (≈ 0.36 µM)
MIC Enterococcus faecalis (ATCC 29212) ([2]; inoculum 5×10^5 CFU/mL, strain ATCC 29212): 1 µg/mL (≈ 0.72 µM)
MIC Enterococcus faecalis (GC 2242) ([2]; inoculum 5×10^5 CFU/mL, strain GC 2242): 1 µg/mL (≈ 0.72 µM)
MIC Enterococcus faecium (GC 2243) ([2]; inoculum 5×10^5 CFU/mL, strain GC 2243): 1 µg/mL (≈ 0.72 µM)
MIC Enterococcus faecalis (GC 2691) ([2]; inoculum 5×10^5 CFU/mL, strain GC 2691): 1 µg/mL (≈ 0.72 µM)
MIC Enterococcus faecalis (GC 3059) ([2]; inoculum 5×10^5 CFU/mL, strain GC 3059): 1 µg/mL (≈ 0.72 µM)
MIC Enterococcus faecalis (GC 4552) ([2]; inoculum 5×10^5 CFU/mL, strain GC 4552): 1 µg/mL (≈ 0.72 µM)
MIC Enterococcus faecalis (GC 4553) ([2]; inoculum 5×10^5 CFU/mL, strain GC 4553): 1 µg/mL (≈ 0.72 µM)
MIC Enterococcus faecalis (GC 4554) ([2]; inoculum 5×10^5 CFU/mL, strain GC 4554): 1 µg/mL (≈ 0.72 µM)
MIC Enterococcus faecium (GC 4556) ([2]; inoculum 5×10^5 CFU/mL, strain GC 4556): 1 µg/mL (≈ 0.72 µM)
MIC Enterococcus faecium (GC 4557) ([2]; inoculum 5×10^5 CFU/mL, strain GC 4557): 0.5 µg/mL (≈ 0.36 µM)
MIC Enterococcus avium (GC 4558) ([2]; inoculum 5×10^5 CFU/mL, strain GC 4558): 1 µg/mL (≈ 0.72 µM)
MIC Enterococcus faecalis (GC 6189) ([2]; inoculum 5×10^5 CFU/mL, strain GC 6189): 1 µg/mL (≈ 0.72 µM)
MIC Streptococcus agalactiae (GC 4564) [3]: <0.12 µg/mL
MIC Streptococcus pneumoniae (ATCC 6301) [3]: <0.12 µg/mL
MIC Streptococcus pneumoniae (GC 1894) [3]: <0.12 µg/mL
MIC Streptococcus pneumoniae (GC 4565) [3]: <0.12 µg/mL
MIC Streptococcus pyogenes (GC 4563) [3]: <0.12 µg/mL
MIC Streptococcus pneumoniae (ATCC 6301) ([3]; inoculum 5×10^5 CFU/mL, strain ATCC 6301): <0.12 µg/mL
MIC Streptococcus pneumoniae (GC 1894) ([3]; inoculum 5×10^5 CFU/mL, strain GC 1894): <0.12 µg/mL
MIC Streptococcus pyogenes (GC 4563) ([3]; inoculum 5×10^5 CFU/mL, strain GC 4563): <0.12 µg/mL
MIC Streptococcus agalactiae (GC 4564) ([3]; inoculum 5×10^5 CFU/mL, strain GC 4564): <0.12 µg/mL
MIC Streptococcus pneumoniae (GC 4565) ([3]; inoculum 5×10^5 CFU/mL, strain GC 4565): <0.12 µg/mL
MIC Escherichia coli (ATCC 25922) [4]: 16 µg/mL (≈ 11.5 µM)
MIC Escherichia coli (GC 4559) [4]: 16 µg/mL (≈ 11.5 µM)
MIC Escherichia coli (GC 4560) [4]: 0.25 µg/mL (≈ 0.18 µM)
SMILES: CC(C1CCCCC1)C1NC(=O)CNC(=O)C(CO)NC(=O)C(C(O)C2CNC(=N)N2C2OC(CO)C(O)C(O)C2O)NC(=O)C(C(O)C2CNC(=N)N2)NC(=O)C(Cc2ccc(OC3OC(CO)C(OC4OC5COC(c6ccccc6)OC5C(O)C4O)C(O)C3O)cc2)NC1=O (stereo not shown) [Example 201]
MIC Staphylococcus haemolyticus (GC 4546) ([1]; strain GC 4546): 0.25 µg/mL (≈ 0.18 µM)
